Measurements as given in patent US20090035215A1, “RADIOFLUORINATION” (priority 2006, published 2009).

Assay: TABLE 1
Source text: Table printed on a drawing sheet, TABLE 1
The patent's description of the figure: FIGS. 1A, 1B, 1C, 2A, 2B, 2C, 3A, 3B AND 3C SHOW INTENSITY/RETENTION TIME CURVES FOR VARIOUS PRODUCTS.

| Compound | % intact after 6 h [%] | t1/2 [h] |
| --- | --- | --- |
| CC(C)[Si](F)(c1cccc(CCCOC2CCCCO2)c1)C(C)C (racemic) [3d - F] | > 95 | > 100.0 |
| CC(C)[Si](F)(c1ccc(CCCO)cc1)C(C)C [4c - F] |  | > 100.0 |
| CC(C)[Si](F)(c1cccc(CCOC2CCCCO2)c1)C(C)C (racemic) [3e - F] | > 95 | > 100.0 |
